Results reported in US6706664B1, “Benzoxazole compounds, process for the preparation thereof and herbicides” (UBE Industries, Ltd., priority 1999, dated 2004).

Assays:
Design in all cases: key: 0: normal development; 1: Less damaged; 2: Slightly damaged; 3: Moderately damaged; 4: Severely damaged; 5: All killed
blackgrass [1] = assay: Soil treatment test for upland field; type: in vivo, Alopecurus aegualis; conditions: 500 g/ha, glass house 25° C., 3 weeks
In short: (§1)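 Soil treatment, 500 g/ha, sprayed onto soil surface after sowing; alluvial Ube soil; 0.05% surfactant in diluent; glasshouse, avg 25° C, 3 wk; visual score 0–5 (5 = all killed).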

wheat [2] = assay: Soil treatment test for upland field; type: in vivo; conditions: 500 g/ha, glass house 25° C., 3 weeks
In short: as §1

soybean = assay: Soil treatment test for upland field; type: in vivo; conditions: 500 g/ha, glass house 25° C., 3 weeks
In short: as §1

solgum [3] = assay: Soil treatment test for upland field; type: in vivo; conditions: 500 g/ha, glass house 25° C., 3 weeks
In short: as §1

cotton = assay: Soil treatment test for upland field; type: in vivo; conditions: 500 g/ha, glass house 25° C., 3 weeks
In short: as §1

sugar beat [4] = assay: Soil treatment test for upland field; type: in vivo; conditions: 500 g/ha, glass house 25° C., 3 weeks
In short: as §1

corn [5] = assay: Soil treatment test for upland field; type: in vivo; conditions: 500 g/ha, glass house 25° C., 3 weeks
In short: as §1

common lambsquartes [6] = assay: Foliar spread test for upland field; type: in vivo, Chenopodium album; conditions: foliar spray 500 ppm, 3 weeks, rank vs non-treated
Text: (§2) (0: normal development, 1: Less damaged, 2: Slightly damaged, 3: Moderately damaged, 4: Severely damaged, 5: All killed).
(§3) Wagner pots, each having an area of 1/5000 are, were packed with volcanic ash soil and then each seed of corn, soybean, cotton, wheat, solgum, sugar beat, Large crabgrass, barnyardgrass, green foxtail, blackgrass, annual bluegrass, common lambsquartes, livid amaranth, velvetleaf and morning glory was planted, covered with soil and grown in a glass house at an average temperature of […] for about 2 weeks.
(§4) Each wettable powder of the desired compounds (I) shown in Table 1 prepared in accordance with Example 2 was diluted to 500 ppm with water containing a surfactant (0.5%) and then uniformly sprayed on the above respective plants.
(§5) After these plants were controlled in a glass house at an average temperature of 25° C. for 3 weeks, the herbicidal effects thereof were investigated.
(§6) The herbicidal effects were evaluated according to the evaluation method described in the above (1).

green foxtail [7] = assay: Soil treatment test for upland field; type: in vivo, Setaria viridis; conditions: 500 g/ha, glass house 25° C., 3 weeks
In short: as §1

velvetleaf [8] = assay: Foliar spread test for upland field; type: in vivo, Abutilon theophrasti; conditions: foliar spray 500 ppm, 3 weeks, rank vs non-treated
Text: as §2, §3, §4, §5, §6

Large crabgrass [9] = assay: Soil treatment test for upland field; type: in vivo, Digitaria adscendens; conditions: 500 g/ha, glass house 25° C., 3 weeks
In short: as §1

annual bluegrass [10] = assay: Foliar spread test for upland field; type: in vivo, Poa annua; conditions: foliar spray 500 ppm, 3 weeks, rank vs non-treated
Text: as §2, §3, §4, §5, §6

annual bluegrass [11] = assay: Soil treatment test for upland field; type: in vivo, Poa annua; conditions: 500 g/ha, glass house 25° C., 3 weeks
In short: as §1

livid amaranth [12] = assay: Soil treatment test for upland field; type: in vivo, Amaranthus lividus; conditions: 500 g/ha, glass house 25° C., 3 weeks
In short: as §1

common lambsquartes [13] = assay: Soil treatment test for upland field; type: in vivo, Chenopodium album; conditions: 500 g/ha, glass house 25° C., 3 weeks
In short: as §1

Large crabgrass [14] = assay: Foliar spread test for upland field; type: in vivo, Digitaria adscendens; conditions: foliar spray 500 ppm, 3 weeks, rank vs non-treated
Text: as §2, §3, §4, §5, §6

livid amaranth [15] = assay: Foliar spread test for upland field; type: in vivo, Amaranthus lividus; conditions: foliar spray 500 ppm, 3 weeks, rank vs non-treated
Text: as §2, §3, §4, §5, §6

wheat [16] = assay: Foliar spread test for upland field; type: in vivo; conditions: foliar spray 500 ppm, 3 weeks, rank vs non-treated
Text: as §2, §3, §4, §5, §6

solgum [17] = assay: Foliar spread test for upland field; type: in vivo; conditions: foliar spray 500 ppm, 3 weeks, rank vs non-treated
Text: as §2, §3, §4, §5, §6

sugar beat [18] = assay: Foliar spread test for upland field; type: in vivo; conditions: foliar spray 500 ppm, 3 weeks, rank vs non-treated
Text: as §2, §3, §4, §5, §6

corn [19] = assay: Foliar spread test for upland field; type: in vivo; conditions: foliar spray 500 ppm, 3 weeks, rank vs non-treated
Text: as §2, §3, §4, §5, §6

barnyardgrass = assay: Soil treatment test for upland field; type: in vivo, Echinochloa crusgalli; conditions: 500 g/ha, glass house 25° C., 3 weeks
In short: as §1

velvetleaf [20] = assay: Soil treatment test for upland field; type: in vivo, Abutilon theophrasti; conditions: 500 g/ha, glass house 25° C., 3 weeks
In short: as §1

blackgrass [21] = assay: Foliar spread test for upland field; type: in vivo, Alopecurus aegualis; conditions: foliar spray 500 ppm, 3 weeks, rank vs non-treated
Text: as §2, §3, §4, §5, §6

green foxtail [22] = assay: Foliar spread test for upland field; type: in vivo, Setaria viridis; conditions: foliar spray 500 ppm, 3 weeks, rank vs non-treated
Text: as §2, §3, §4, §5, §6

bulrush = assay: Herbicidal test for paddy field; type: in vivo, Scrips juncoides; conditions: paddy field pot, 500 g/ha dropwise at 1.5 leaf stage of barnyardgrass, 3 weeks, rank vs non-treated
Description: (§7) Wagner pots, each having an area of 1/5000 are, were packed with Ube soil (alluvial soil) and planted with seeds or tubers of young rice plant, barnyardgrass, bulrush, flat sedge and monochoria. Then, the pots were filled with water to a depth of 3 cm.
(§8) Each wettable powder of the desired compounds (I) shown in Table 1 prepared in accordance with Example 2 was diluted with water containing a surfactant (0.05%) and subjected to dropwise addition treatment by using pipet so that an effective concentration of the compound (I) in each herbicide became 500 g/ha at 1.5 leaf stage of barnyardgrass.
(§9) These plants were controlled in a glass house at an average temperature of 25° C. for 3 weeks, and then herbicidal effects thereof were investigated.
(§10) The herbicidal effects are evaluated according to the following 6 ranks as compared with non-treated district.
as §2

morning glory = assay: Foliar spread test for upland field; type: in vivo, Ipomoea spps.; conditions: foliar spray 500 ppm, 3 weeks, rank vs non-treated
Text: as §2, §3, §4, §5, §6

young rice plant = assay: Herbicidal test for paddy field; type: in vivo; conditions: paddy field pot, 500 g/ha dropwise at 1.5 leaf stage of barnyardgrass, 3 weeks, rank vs non-treated
Description: as §7, §8, §9, §10, §2

monochoria = assay: Herbicidal test for paddy field; type: in vivo, Monochoria vaginalis; conditions: paddy field pot, 500 g/ha dropwise at 1.5 leaf stage of barnyardgrass, 3 weeks, rank vs non-treated
Description: as §7, §8, §9, §10, §2

Row | SMILES | Effects Blackgrass (blackgrass [1]) | Effects Wheat (wheat [2]) | Effects Soybean (soybean) | Effects Solgum (solgum [3]) | Effects Cotton (cotton) | Effects Sugar beat (sugar beat [4]) | Effects Corn (corn [5]) | Effects Common lambsquarters (common lambsquartes [6]) | Effects Green foxtail (green foxtail [7]) | Effects Velvetleaf (velvetleaf [8]) | Effects Large crabgrass (Large crabgrass [9]) | Effects Annual bluegrass (annual bluegrass [11]) | Effects Livid amaranth (livid amaranth [12]) | Effects Common lambsquarters (common lambsquartes [13]) | Effects Livid amaranth (livid amaranth [15]) | Effects Wheat (wheat [16]) | Effects Solgum (solgum [17]) | Effects Sugar beat (sugar beat [18]) | Effects Corn (corn [19]) | Effects Velvetleaf (velvetleaf [20]) | also measured
1 | CCC(Oc1cccc(C(F)(F)F)c1)c1nc2cc(F)c(Cl)cc2o1 (centres unmarked) [Compound 496] | 5 | 1 | 0 | 1 | 1 | 5 | 0 | 5 | 5 | 3 | 5 | 5 | 5 | 5 | 5 | 2 | 2 | 5 | 2 | 5 | Effects Annual bluegrass (annual bluegrass [10]): 2; Effects Large crabgrass (Large crabgrass [14]): 3; Effects Barnyardgrass (barnyardgrass): 3; Effects Blackgrass (blackgrass [21]): 3; Effects Green foxtail (green foxtail [22]): 4
2 | CCC(Oc1ccc(F)c(C(F)(F)F)c1)c1nc2cc(C#N)c(C#N)cc2o1 (centres unmarked) [Compound 316] | 4 | 0 | 0 | 0 | 0 | 5 | 0 | 3 | 5 | 3 | 5 | 4 | 5 | 5 | 5 | 1 | 1 | 5 | 2 | 5 | Effect Bulrush (bulrush): 3; Effects Morning glory (morning glory): 2; Effect Young rice plant (young rice plant): 0; Effect Monochoria (monochoria): 5; Effects Green foxtail (green foxtail [22]): 5
3 | CCC(Oc1ccc(F)c(C(F)(F)F)c1)c1nc2cc(OC)ccc2o1 (centres unmarked) [Compound 503] | 5 | 2 | 1 | 2 | 1 | 5 | 2 | 5 | 5 | 3 | 5 | 5 | 5 | 5 | 5 | 2 | 2 | 4 | 2 | 5 | Effects Annual bluegrass (annual bluegrass [10]): 3; Effects Large crabgrass (Large crabgrass [14]): 3; Effects Barnyardgrass (barnyardgrass): 5; Effects Green foxtail (green foxtail [22]): 5
